Source: US12472187B2, “Texaphyrin-Pt(IV) conjugates and compositions for use in overcoming platinum resistance” (BOARD OF REGENTS, THE UNIVERSITY OF TEXAS SYSTEM, priority 2014, dated 2025)

Columns and labels:
A2780 cells = conditions: platinum sensitive A2780 cells; data from Arambula, et al., 2012; cited from earlier work
2780CP cells [1] = conditions: cisplatin resistant 2780CP cells; data from Arambula, et al., 2012; cited from earlier work
2780CP cells [2] = test: MTT (tetrazolium dye reduction) proliferation assay, cisplatin resistant 2780CP cells; type: cell-based, human; conditions: ratio of IC50 in 2780CP to A2780; rows for cisplatin and 2 rest on cited IC50
Method: The A2780 line was established from a patient's biopsy prior to initiation of any chemotherapeutic regimen (Godwin, et al., 1992). The resistant cell line, 2780CP, used in this study, was established from A2780 cells, as described by Siddik, et al., 1998. The two cell lines have wild-type p53 genotype and/or function. Cells were grown in RPMI containing 10% fetal calf serum and antibiotics (100 μg/mL streptomycin and 100 U/mL penicillin).
The proliferation of exponential phase cultures of A2780 and 2780CP cells was assessed by tetrazolium dye reduction (Mosmann, 1983, which is incorporated herein by reference). […] After a total incubation time of 6 days at 37° C., 50 μL of a stock solution at 3 mg/ml of the tetrazolium dye, 3-(4,5-dimethylthiazol-2-yl)-2,5-diphenyltetrazolium bromide (MTT, Sigma Chemical) were added to each well, the plates incubated at 37° C. for 4 hours, whereupon the medium was removed, the formazan product dissolved in DMSO (50-100 μL) and absorbance values at 570 nm was measured using a microplate reader (Molecular Devices, Sunnyvale, CA). Absorbance values were corrected for background and then normalized to wells containing untreated cells to allow plate-to-plate comparisons. […]
The anti-proliferative effects of conjugates 4 and 5 were assessed with platinum sensitive human ovarian A2780 cells and the isogenic cisplatin resistant 2780CP cell line. […]

A2780 cancer cells = test: MTT antiproliferative assay of Pt(IV), MGd and MGd+Pt(IV) on A2780 cancer cells; type: cell-based; conditions: agent alone, read-out: IC50 (growth inhibition), single agent
Method: A2780 cancer cells were incubated (37° C., 5% CO2 atmosphere, dark) in 96-wells plates at a concentration of 600 cells/well, in a culture medium containing 10% fetal bovine serum and supplemented with penicillin and streptomycin. After 15 h, drugs (Pt(IV), MGd, MGd+Pt(IV)) were added to cells (gradient of concentration, from 0 to 200 μM, 3-fold dilutions) and plates were incubated for five more days using the above conditions. After five days, MTT dye was added in each well (0.15 mg/well) and plates were left for 4 hours in the incubator. Then, supernatant was carefully removed and 50 μL of DMSO were added to dissolve MTT purple formazan crystals. The absorbance was read at 570 nm using a plate reader.

Row | IC50 (A2780 cancer cells) | SMILES | IC50 (A2780 cells) | IC50 (2780CP cells [1]) | Resistance factor = IC50(2780CP)/IC50(A2780) (2780CP cells [2])
1 | – | N.N.[Cl][Pt][Cl] [Cisplatin] | 0.33 µM | 7.3 µM | 18.25
2 | 78 µM | CC(=O)[O-].CC(=O)[O-].CCc1c(CC)c2cc3nc(cnc4cc(OCCOCCOCCOC)c(OCCOCCOCCOC)cc4ncc4nc(cc1[n-]2)C(CCCO)=C4C)C(C)=C3CCCO.[Gd+3] [Compound 1, motexafin gadolinium] | – | – | –
